# Data taken from article PMC12567082, “Silver(I) Complexes Bearing S-Alkyl Thiosalicylic Acid Derivatives: DNA/BSA Binding and Antitumor Activity In Vitro and In Vivo” (Pharmaceutics, 2025).
# Tests used:
# 4T1 cells [1] = experiment: Cell cycle distribution; assay type: cell-based, mouse; conditions: 0.5 µM, 24 h
# Experimental: After reaching optimal confluency, 4T1 cells were allowed to grow in the presence of 0.5 µM of C3 or DMEM only (control 4T1 cells) for next 24 h. According to manufacturer’s recommendation, cells were stained with Vybrant® DyeCycle^TM Ruby stain (Thermo Fisher Scientific, Waltham, MA, USA) in order to perform cell cycle analysis. The analysis was carried out on FACSCalibur Flow Cytometer (BD Biosciences, San Jose, CA, USA), and data were analyzed using FlowJo software (version 10.7.2; Tree Star Inc. Ashland, OR, USA).
# 4T1 cells [2] = experiment: Mitochondrial membrane potential and ROS levels; assay type: cell-based, mouse; conditions: 0.5 µM
# Experimental: After 24 h of C3 treatment, 4T1 cells were stained with appropriate dyes, followed by flow cytometry analysis using FACS Calibur Flow Cytometer (BD Biosciences, San Jose, CA, USA). Mitochondrial membrane potential stained by Rhodamine-123 (Sigma-Aldrich, St. Louis, MO, USA), TMRE (Abcam, Cambridge, UK), and cellular ROS levels were stained by DC-FHDA (Sigma-Aldrich, St. Louis, MO, USA).
# 4T1 cells [3] = experiment: Analysis of cell death (Annexin V/PI) in 4T1; assay type: cell-based, mouse; conditions: 0.5 µM, 24 h, vs untreated
# Experimental: 4T1 cells were treated with 0.5 µM of C3 or grown in DMEM only (control 4T1 cells) for 24 h and stained with Annexin-V-FITC and propidium iodide (PI) (BD Pharmingen, San Diego, CA, USA) as previously described. Quantification of cellular death was measured using FACSCalibur Flow Cytometer (BD Biosciences, San Jose, CA, USA) and FlowJo software (version 10.7.2; Tree Star Inc. Ashland, OR, USA).
# CT-DNA = experiment: UV-Vis absorption titration with CT-DNA; assay type: binding, calf; conditions: ΔG = −RT lnKb
# Experimental: All DNA-binding studies were conducted in 0.01 M phosphate-buffered saline (PBS, pH 7.40) at 25 °C. […] To eliminate absorbance from CT-DNA, identical amounts of DNA were added to both the test and reference solutions prior to spectral recording.
# Intrinsic binding constants (Kb) were calculated using the equation to determine the DNA-binding affinities of the complexes (1):[DNA]/(εa − εf) = [DNA]/(εb − εf) + 1 [Kb(εb − εf)](1)
# [DNA] represents the concentration of DNA; apparent extinction coefficient, εa, was calculated as the ratio of the observed absorbance to the concentration of the complex (Aobs/[complex]); and εb and εf correspond to the extinction coefficients of the complex in the fully bound and free forms, respectively. Kb was determined from the ratio of the slope to the intercept obtained from the corresponding linear plots.
# 4T1 cells [4] = experiment: Scratch assay; assay type: cell-based, mouse; conditions: 0.5 µM, after 12 and 24 h, vs untreated
# Experimental: In order to determine migratory capacity of C3-treated 4T1 cells, scratch assay was performed as previously described. Once 4T1 cells formed a confluent monolayer, an injury was made, and first representative images were taken immediately. Further 4T1 cells were exposed to C3 (0.5 µM) or DMEM only (untreated cells), and observation under inverted optical microscope (Olympus, Tokyo, Japan) was made after 4 h, 12 h, and 24 h. Scratch width was quantified by ImageJ (version 1.54.0 NIH, Madison, WI, USA).
# human lung cancer (A549) = experiment: MTT assay A549; assay type: cell-based
# Experimental: Mouse breast cancer (4T1), human breast cancer (MDA-MB-468), mouse colon cancer (CT26), human colon cancer (HCT-116), mouse lung cancer (LLC1), human lung cancer (A549), mouse mesenchymal stem cells (mMSC), and human fibroblast cell lines (MRC-5) were used in this study and were consistently cultured in complete Dulbecco’s Modified Eagle Medium (DMEM) (Sigma-Aldrich, St. Louis, MO, USA) in incubator (5% CO2) under standard conditions. Complete DMEM was Dulbecco’s Modified Eagle Medium supplemented with 10% fetal bovine serum (FBS), 1 mmol/L penicillin–streptomycin, 1 mmol/L mixed nonessential amino acids, and 2 mmol/L L-glutamine (Sigma-Aldrich, St. Louis, MO, USA). All cancer cell lines and MRC-5 cell line were obtained from American Type Culture Collection (ATCC, Manassas, VA, USA), but mMSC was manufactured by Gibco (Middlesex County, MA, USA).
# In 96-well microplates, we seeded cancer and non-cancer cells, more exactly 5 × 10^3 cells per well in 100 μL of complete DMEM (Sigma-Aldrich, St. Louis, MO, USA). […] Tested concentration range for all metal-based substances was 3.9–500 μM. After incubation with MTT solution (5 mg/mL; pH 7.2) for 4 h, optical density was determined using Zenyth 3100 microplate multimode detector (Salzburg, Austria). All experiments were performed three times, each in triplicate, and the IC50 values as well as selectivity indexes (IC50 for mMSC or MRC-5/IC50 for mouse or human cancer cells) were calculated.
# BSA = biological target: T1, BSA (Bos taurus, UniProt P02769); experiment: BSA tryptophan fluorescence quenching; assay type: binding, bovine
# T1 construct: purchased Sigma-Aldrich
# T1 sequence (P02769 25-607): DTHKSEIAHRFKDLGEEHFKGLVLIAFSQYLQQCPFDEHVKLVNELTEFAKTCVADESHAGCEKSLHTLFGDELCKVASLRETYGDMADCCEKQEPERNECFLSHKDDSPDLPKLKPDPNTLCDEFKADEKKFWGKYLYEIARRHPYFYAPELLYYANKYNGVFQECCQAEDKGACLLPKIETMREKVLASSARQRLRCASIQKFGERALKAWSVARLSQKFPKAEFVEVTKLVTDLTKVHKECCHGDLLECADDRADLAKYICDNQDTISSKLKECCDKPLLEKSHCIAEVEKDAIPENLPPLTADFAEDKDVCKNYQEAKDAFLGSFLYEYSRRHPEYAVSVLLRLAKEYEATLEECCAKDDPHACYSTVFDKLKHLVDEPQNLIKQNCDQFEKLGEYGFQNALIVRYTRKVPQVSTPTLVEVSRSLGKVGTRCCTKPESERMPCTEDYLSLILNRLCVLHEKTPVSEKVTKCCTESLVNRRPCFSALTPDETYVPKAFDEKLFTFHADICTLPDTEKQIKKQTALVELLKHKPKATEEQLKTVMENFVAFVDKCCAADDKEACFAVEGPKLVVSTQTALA
# Experimental: The protein binding study was carried out using tryptophan fluorescence quenching experiments with BSA. […] Fluorescence emission spectra were recorded between 300 and 500 nm, with excitation at 295 nm.
# The quenching constant Ksv was determined based on the Stern–Volmer relationship, as described by Equation (3):I0/I = 1 + kqτ0[Q] = 1 + Ksv[Q](3)
# In this equation, I0 and I refer to the fluorescence intensities of BSA measured without and with the quencher (complex), τ0 represents the average fluorescence lifetime of free BSA (∼10^−8 s), and [Q] indicates the quencher concentration.
# Parameters such as association binding constant (K) and the number of binding sites per albumin (n) were obtained from Scatchard Equation (4):(ΔI/I0)/[Q] = nK − KΔI/I0(4)
# To minimize inner filter, both intensities of fluorescence originating from excitation and emission light absorption and re-absorption were corrected by employing Equation (5); Icor and Iobs are the corrected and observed fluorescence intensities, respectively, and Aex and Aem represent the absorbance of the metal complex at the excitation and emission wavelengths, respectively.Icor = Iobs · […]^(Aex + Aem)/2(5)
structure (smiles),measurement,setting,value
"CCCSc1ccccc1C(=O)[O][Ag].CCCSc1ccccc1C(=O)[O][Ag] [C3, [Ag2(S-propyl-thiosal)2]]",percentage of 4T1 cells in G0/G1 phase,4T1 cells [1],significantly increased
same,percentage of 4T1 cells in S phase,4T1 cells [1],decreased
same,TMRE fluorescence (mitochondrial membrane potential),4T1 cells [2],significant decrease
same,level of intracellular ROS,4T1 cells [2]; 24 h incubation,increased
same,percentage of early apoptotic cells,4T1 cells [3],No difference
same,percentage of late apoptotic 4T1 cells (AnnV+/PI+),4T1 cells [3],increased
same,ΔG (Gibbs free energy),CT-DNA,-7.29 kcal/mol
same,migration ability of 4T1 cells,4T1 cells [4],significantly reduced
same,IC50,"human lung cancer (A549); A549, 24 h",55.8 ± 1.83 µM
same,Selectivity Index (IC50 mMSC or MRC-5/ IC50 Cancer Cell),"human lung cancer (A549); A549, 24 h",0.68
same,IC50,"human lung cancer (A549); A549, 48 h",66.3 ± 1.18 µM
same,Selectivity Index (IC50 mMSC or MRC-5/ IC50 Cancer Cell),"human lung cancer (A549); A549, 48 h",0.65
same,kq (quenching rate constant),BSA; BSA 2 µM,(9.6 ± 0.1) × 10^12 M^−1 s^−1
same,Ksv (Stern–Volmer constant),"BSA; BSA 2 µM, λex 295 nm",(9.6 ± 0.1) × 10^4 M^−1
same,K (binding constant),BSA; Scatchard equation,(1.1 ± 0.1) × 10^5 M^−1
same,n (number of binding sites),BSA; Scatchard equation,1.1
